Assay results taken from patent US20050244486A1, “Topical methadone compositions and methods for using the same” (priority 2004, published 2005).
Values after ≈ are worked out from the molar mass of the structure shown. Values joined by “and” are separate entries in the source; they are usually repeats but may differ in a detail not shown here. Identical values can stand only once. Like-named read-outs stand apart in the source and are kept apart here.

Experiments:
[1] = Pharmacokinetic study A: topical Methadone-DEET solution, human plasma; conditions: 10% solution in DEET, one-day application to the skin
[2] = Pharmacokinetic study B: methadone patch, human plasma; assay type: in vivo; conditions: topical, Study B: 5 × 5 cm SIS patch (Methadone 10 weight %), 25 mg Methadone free base, applied 12 hours, left leg inner side above knee, 55 kg person, read-out: Concentrations of Methadone in Human Plasma Samples
[3] = Study 2: concentrations of methadone in rat plasma, topical administration versus intravenous injection; assay type: in vivo
Procedure: The test article was administered intravenously (IV) through the tail vein to animals in Group A. The injection was performed slowly. A gauze pad (1×1 cm) Saturated with 0.2 mL of the appropriate test article was applied to the clipped site on the back of the animals in Groups 2 and 3. The gauze pad was secured by occlusive tape. The animal was wrapped in gauze, which was held in place with Zonas porous tape.
Blood Collection: Blood (0.5 mL) was collected into sodium heparin tubes at the appropriate time points. The samples were centrifuged at approximately 2800 rpm at 2-8 degrees Celsius for approximately 15 minutes. Plasma was collected.

[4] = Solubility of methadone in different solvents; assay type: physicochemical
Procedure: In this experiment, the solubility of methadone in a number of different solvents was evaluated. The solvents evaluated were mineral oil, N-methyl-2-pyrrolidone, diisopropyl adipate, DEET, PEG, Di (propylene glycol), dehydrated alcohol and water. […] The stability of the solutions was also evaluated.

[5] = organic solvent or mixture, thermodynamic from solid, diisopropyl adipate
[6] = organic solvent or mixture, DEET (97%)

CCC(=O)C(CC(C)N(C)C)(c1ccccc1)c1ccccc1 (centres unmarked) [Methadone, 6-dimethylamino-4,4-diphenyl-3-hepatone]
Irritation of human skin by topical methadone composition [1]: lack of irritation
concentration at 12 h ([2]; 12 hr): 5.36 ng/mL
concentration at 18 h ([2]; 18 hr): 4.95 ng/mL
concentration at 139.5 h ([2]; 139.5 hr): 2.24 ng/mL
Irritation of rat skin by topical application ([3]; Study 2, topical methadone solutions on rat skin): lack of irritation
Concentrations of Methadone in Rat Plasma Samples ([3]; Study 2 Group A: I.V. tail vein, 0.25 mL Test Article 1 (0.5 mg/mL Methadone-Saline Solution), 2 min, individual rats A1-A3): 72.0 ng/mL and 63.1 ng/mL
Concentrations of Methadone in Rat Plasma Samples ([3]; Study 2 Group A: I.V. tail vein, 0.25 mL Test Article 1 (0.5 mg/mL Methadone-Saline Solution), 20 min, individual rats A1-A3): 49.2 ng/mL and 59.5 ng/mL
Concentrations of Methadone in Rat Plasma Samples ([3]; Study 2 Group A: I.V. tail vein, 0.25 mL Test Article 1 (0.5 mg/mL Methadone-Saline Solution), 40 min, individual rats A1-A3): 33.0 ng/mL and 35.2 ng/mL
Concentrations of Methadone in Rat Plasma Samples ([3]; Study 2 Group A: I.V. tail vein, 0.25 mL Test Article 1 (0.5 mg/mL Methadone-Saline Solution), 60 min, individual rats A1-A3): 19.7 ng/mL and 24.0 ng/mL
Concentrations of Methadone in Rat Plasma Samples ([3]; Study 2 Group A: I.V. tail vein, 0.25 mL Test Article 1 (0.5 mg/mL Methadone-Saline Solution), 120 min, individual rats A1-A3): 19.5 ng/mL and 13.1 ng/mL and 9.26 ng/mL
Concentrations of Methadone in Rat Plasma Samples ([3]; Study 2 Group A: I.V. tail vein, 0.25 mL Test Article 1 (0.5 mg/mL Methadone-Saline Solution), 480 min, individual rats A1-A3): 1.83 ng/mL and 1.96 ng/mL
Concentrations of Methadone in Rat Plasma Samples ([3]; Study 2 Group A: I.V. tail vein, 0.25 mL Test Article 1 (0.5 mg/mL Methadone-Saline Solution), 1440 min, individual rats A1-A3): 2.31 ng/mL and 0.923 ng/mL
Concentrations of Methadone in Rat Plasma Samples ([3]; Study 2 Group A: I.V. tail vein, 0.25 mL Test Article 1 (0.5 mg/mL Methadone-Saline Solution), 2160 min, individual rats A1-A3): 0.905 ng/mL and 0.944 ng/mL
Concentrations of Methadone in Rat Plasma Samples ([3]; Study 2 Group B: topical dorsal flank, 1 × 1 cm gauze pad with 0.2 mL Test Article 2 (Methadone-Diisopropyl Adipate Solution 23.9%), 15 min, individual rats B1-B3): 1.49 ng/mL and 1.70 ng/mL
Concentrations of Methadone in Rat Plasma Samples ([3]; Study 2 Group B: topical dorsal flank, 1 × 1 cm gauze pad with 0.2 mL Test Article 2 (Methadone-Diisopropyl Adipate Solution 23.9%), 45 min, individual rats B1-B3): 5.66 ng/mL and 3.96 ng/mL and 17.0 ng/mL
Concentrations of Methadone in Rat Plasma Samples ([3]; Study 2 Group B: topical dorsal flank, 1 × 1 cm gauze pad with 0.2 mL Test Article 2 (Methadone-Diisopropyl Adipate Solution 23.9%), 90 min, individual rats B1-B3): 14.3 ng/mL and 27.1 ng/mL
Concentrations of Methadone in Rat Plasma Samples ([3]; Study 2 Group B: topical dorsal flank, 1 × 1 cm gauze pad with 0.2 mL Test Article 2 (Methadone-Diisopropyl Adipate Solution 23.9%), 120 min, individual rats B1-B3): 41.4 ng/mL and 19.1 ng/mL and 44.9 ng/mL
Concentrations of Methadone in Rat Plasma Samples ([3]; Study 2 Group B: topical dorsal flank, 1 × 1 cm gauze pad with 0.2 mL Test Article 2 (Methadone-Diisopropyl Adipate Solution 23.9%), 480 min, individual rats B1-B3): 159 ng/mL and 46.7 ng/mL and 300 ng/mL
Concentrations of Methadone in Rat Plasma Samples ([3]; Study 2 Group B: topical dorsal flank, 1 × 1 cm gauze pad with 0.2 mL Test Article 2 (Methadone-Diisopropyl Adipate Solution 23.9%), 1440 min, individual rats B1-B3): 117 ng/mL and 168 ng/mL
Concentrations of Methadone in Rat Plasma Samples ([3]; Study 2 Group B: topical dorsal flank, 1 × 1 cm gauze pad with 0.2 mL Test Article 2 (Methadone-Diisopropyl Adipate Solution 23.9%), 2160 min, individual rats B1-B3): 82.7 ng/mL and 126 ng/mL and 59.4 ng/mL
Concentrations of Methadone in Rat Plasma Samples ([3]; Study 2 Group B: topical dorsal flank, 1 × 1 cm gauze pad with 0.2 mL Test Article 2 (Methadone-Diisopropyl Adipate Solution 23.9%), 2880 min, individual rats B1-B3): 49.4 ng/mL and 173 ng/mL and 34.0 ng/mL
Concentrations of Methadone in Rat Plasma Samples ([3]; Study 2 Group C: topical dorsal flank, 1 × 1 cm gauze pad with 0.2 mL Test Article 3 (Methadone-DEET Solution 10%), 15 min, individual rats C1-C3): 0.84 ng/mL and 1.72 ng/mL and 1.04 ng/mL
Concentrations of Methadone in Rat Plasma Samples ([3]; Study 2 Group C: topical dorsal flank, 1 × 1 cm gauze pad with 0.2 mL Test Article 3 (Methadone-DEET Solution 10%), 45 min, individual rats C1-C3): 2.42 ng/mL and 1.71 ng/mL
Concentrations of Methadone in Rat Plasma Samples ([3]; Study 2 Group C: topical dorsal flank, 1 × 1 cm gauze pad with 0.2 mL Test Article 3 (Methadone-DEET Solution 10%), 90 min, individual rats C1-C3): 4.7 ng/mL and 2.89 ng/mL
Concentrations of Methadone in Rat Plasma Samples ([3]; Study 2 Group C: topical dorsal flank, 1 × 1 cm gauze pad with 0.2 mL Test Article 3 (Methadone-DEET Solution 10%), 120 min, individual rats C1-C3): 3.84 ng/mL and 7.73 ng/mL and 3.39 ng/mL
Concentrations of Methadone in Rat Plasma Samples ([3]; Study 2 Group C: topical dorsal flank, 1 × 1 cm gauze pad with 0.2 mL Test Article 3 (Methadone-DEET Solution 10%), 480 min, individual rats C1-C3): 18.0 ng/mL and 29.6 ng/mL and 14.3 ng/mL
Concentrations of Methadone in Rat Plasma Samples ([3]; Study 2 Group C: topical dorsal flank, 1 × 1 cm gauze pad with 0.2 mL Test Article 3 (Methadone-DEET Solution 10%), 1440 min, individual rats C1-C3): 20.0 ng/mL and 20.6 ng/mL
Concentrations of Methadone in Rat Plasma Samples ([3]; Study 2 Group C: topical dorsal flank, 1 × 1 cm gauze pad with 0.2 mL Test Article 3 (Methadone-DEET Solution 10%), 2160 min, individual rats C1-C3): 17.3 ng/mL and 35.1 ng/mL and 19.0 ng/mL
Concentrations of Methadone in Rat Plasma Samples ([3]; Study 2 Group C: topical dorsal flank, 1 × 1 cm gauze pad with 0.2 mL Test Article 3 (Methadone-DEET Solution 10%), 2880 min, individual rats C1-C3): 11.1 ng/mL and 23.7 ng/mL and 12.6 ng/mL
concentration at 45 min ([3]; rat, in vivo, 0.2 mL of 10% methadone solution, Study 2 Group C: topical dorsal flank, 1 × 1 cm gauze pad with 0.2 mL Test Article 3 (Methadone-DEET Solution 10%), 45 min, individual rats C1-C3, read-out: Concentrations of Methadone in Rat Plasma Samples): 2.08 ng/mL
concentration at 90 min ([3]; rat, in vivo, 0.2 mL of 10% methadone solution, Study 2 Group C: topical dorsal flank, 1 × 1 cm gauze pad with 0.2 mL Test Article 3 (Methadone-DEET Solution 10%), 90 min, individual rats C1-C3, read-out: Concentrations of Methadone in Rat Plasma Samples): 3.17 ng/mL
concentration at 1440 min ([3]; rat, in vivo, 0.2 mL of 10% methadone solution, Study 2 Group C: topical dorsal flank, 1 × 1 cm gauze pad with 0.2 mL Test Article 3 (Methadone-DEET Solution 10%), 1440 min, individual rats C1-C3, read-out: Concentrations of Methadone in Rat Plasma Samples): 27.8 ng/mL
concentration at 15 min ([3]; rat, in vivo, 0.2 mL of 23.9% methadone solution, Study 2 Group B: topical dorsal flank, 1 × 1 cm gauze pad with 0.2 mL Test Article 2 (Methadone-Diisopropyl Adipate Solution 23.9%), 15 min, individual rats B1-B3, read-out: Concentrations of Methadone in Rat Plasma Samples): 2.75 ng/mL
concentration at 90 min ([3]; rat, in vivo, 0.2 mL of 23.9% methadone solution, Study 2 Group B: topical dorsal flank, 1 × 1 cm gauze pad with 0.2 mL Test Article 2 (Methadone-Diisopropyl Adipate Solution 23.9%), 90 min, individual rats B1-B3, read-out: Concentrations of Methadone in Rat Plasma Samples): 24.8 ng/mL
concentration at 1440 min ([3]; rat, in vivo, 0.2 mL of 23.9% methadone solution, Study 2 Group B: topical dorsal flank, 1 × 1 cm gauze pad with 0.2 mL Test Article 2 (Methadone-Diisopropyl Adipate Solution 23.9%), 1440 min, individual rats B1-B3, read-out: Concentrations of Methadone in Rat Plasma Samples): 116 ng/mL
concentration at 2 min ([3]; rat, in vivo, iv, 0.125 mg, Study 2 Group A: I.V. tail vein, 0.25 mL Test Article 1 (0.5 mg/mL Methadone-Saline Solution), 2 min, individual rats A1-A3, read-out: Concentrations of Methadone in Rat Plasma Samples): 36.3 ng/mL
concentration at 20 min ([3]; rat, in vivo, iv, 0.125 mg, Study 2 Group A: I.V. tail vein, 0.25 mL Test Article 1 (0.5 mg/mL Methadone-Saline Solution), 20 min, individual rats A1-A3, read-out: Concentrations of Methadone in Rat Plasma Samples): 55.9 ng/mL
concentration at 40 min ([3]; rat, in vivo, iv, 0.125 mg, Study 2 Group A: I.V. tail vein, 0.25 mL Test Article 1 (0.5 mg/mL Methadone-Saline Solution), 40 min, individual rats A1-A3, read-out: Concentrations of Methadone in Rat Plasma Samples): 35.4 ng/mL
concentration at 60 min ([3]; rat, in vivo, iv, 0.125 mg, Study 2 Group A: I.V. tail vein, 0.25 mL Test Article 1 (0.5 mg/mL Methadone-Saline Solution), 60 min, individual rats A1-A3, read-out: Concentrations of Methadone in Rat Plasma Samples): 28.1 ng/mL
concentration at 480 min ([3]; rat, in vivo, iv, 0.125 mg, Study 2 Group A: I.V. tail vein, 0.25 mL Test Article 1 (0.5 mg/mL Methadone-Saline Solution), 480 min, individual rats A1-A3, read-out: Concentrations of Methadone in Rat Plasma Samples): 1.54 ng/mL
concentration at 2160 min ([3]; rat, in vivo, iv, 0.125 mg, Study 2 Group A: I.V. tail vein, 0.25 mL Test Article 1 (0.5 mg/mL Methadone-Saline Solution), 2160 min, individual rats A1-A3, read-out: Concentrations of Methadone in Rat Plasma Samples): 0.796 ng/mL
solubility at 3 h ([4]; oil or lipid, Mineral oil): 39.9 mg/mL (≈ 129 mM)
solubility at 6 h ([4]; oil or lipid, Mineral oil): 37.2 mg/mL (≈ 120 mM)
solubility at 24 h ([4]; oil or lipid, Mineral oil, 24 hour): 40.4 mg/mL (≈ 131 mM)
solubility at 48 h ([4]; oil or lipid, Mineral oil): 40.4 mg/mL (≈ 131 mM)
solubility at 3 h [4, 5]: 343 mg/mL (≈ 1110 mM)
solubility at 6 h [4, 5]: 345 mg/mL (≈ 1110 mM)
solubility at 48 h [4, 5]: 324 mg/mL (≈ 1050 mM)
solubility at 3 h [4, 6]: 124 mg/mL (≈ 401 mM)
solubility at 6 h [4, 6]: 125 mg/mL (≈ 404 mM)
